US12129233B2, “Water-soluble salts of cannabinoids, preparation and uses thereof” (priority 2021, dated 2024)
Structures can show the parent of a compound that is named as a salt.

assay: not given; conditions: in water; synthesized salts (and cannabinol parent)

Q: With `CCCCCc1cc(O)c2c(c1)OC(C)(C)C1CCC(C)=CC21` (centres unmarked) [drawing 25/drawing 26 1:1, Choline Salt with THC (1:1)] as the compound, how does the Solubility read?
A: 3000 µg/mL

Q: With `CCCCCc1cc(O)c2c(c1)OC(C)(C)C1CCC(C)=CC21` [drawing 25/drawing 27 1:1, L-Lysine Salt with THC (1:1)] as the compound, how does the Solubility read?
A: 2000 µg/mL

Q: With `CCCCCc1cc(O)c2c(c1)OC(C)(C)C1CCC(C)=CC21` (centres unmarked) [drawing 25/drawing 29 1:1, Agmatine Salt with THC (1:1)] as the compound, how does the Solubility read?
A: 200 µg/mL

Q: For `CCCc1cc(O)c2c(c1)OC(C)(C)C1CCC(C)=CC21` (centres unmarked) [drawing 37/drawing 38 1:1, Tetrakis(2-hydroxyethyl)ammonium Salt with Δ^9-Tetrahydrocannabivarin (1:1)], which Solubility is on record?
A: 7000 µg/mL

Q: Which Solubility does the source give for `CCCc1cc(O)c2c(c1)OC(C)(C)C1CCC(C)=CC21` (centres unmarked) [drawing 37/n^−Bu4N^+ 1:1, Tetrabutylammonium Salt with Δ^9-Tetrahydrocannabivarin (1:1)] here?
A: 200 µg/mL

Q: Which Solubility does the source give for `CCCCCc1cc(O)c2c(c1)OC(C)(C)c1ccc(C)cc1-2` [drawing 39, Cannabinol, reference compound] here?
A: insoluble

Q: Which Solubility does the source give for `CCCCCc1cc(O)c2c(c1)OC(C)(C)c1ccc(C)cc1-2` [drawing 39/Et4N^+ 1:1, Tetraethylammonium Salt with Cannabinol (1:1)] here?
A: 200 µg/mL

Q: Which Solubility does the source give for `CCCCCc1cc(O)c2c(c1)OC(C)(C)c1ccc(C)cc1-2` [drawing 39/drawing 41 1:1, Acetylcholine Salt with Cannabinol (1:1)] here?
A: 1000 µg/mL

Q: For “Procaine Salt with CBD (1:1) [drawing 17/drawing 22 1:1]”, which Solubility is on record?
A: 5000 µg/mL

Q: Which Solubility does the source give for “Procaine Salt with CBD (2:1) [drawing 17/drawing 22 1:2]” here?
A: 6000 µg/mL

assay: not given; conditions: in water; parent cannabinoid without base, literature value (footnotes a-f); cited from earlier work

Q: With `C=C(C)[C@@H]1CCC(C)=C[C@H]1c1c(O)cc(CCCCC)cc1O` [Cannabidiol] as the compound, how does the Solubility read?
A: 0.0007^[a] mg/mL

Q: With `C=C(C)[C@@H]1CCC(C)=C[C@H]1c1c(O)cc(CCCCC)c(C(=O)O)c1O` [Cannabidiolic acid] as the compound, how does the Solubility read?
A: 2.2^[c] mg/mL

Q: Which Solubility does the source give for `CCCCCc1cc(O)c2c(c1)OC(C)(C)C1CCC(C)=CC21` (centres unmarked) [drawing 25, Δ^9-tetrahydrocannabinol] here?
A: 0.0028^[b] mg/mL

Q: Which Solubility does the source give for `CCCCCc1cc2c(c(O)c1C(=O)O)C1C=C(C)CCC1C(C)(C)O2` (centres unmarked) [drawing 32, Tetrahydrocannabinolic acid] here?
A: 0.048^[d] mg/mL

Q: Which Solubility does the source give for `CCCc1cc(O)c2c(c1)OC(C)(C)C1CCC(C)=CC21` (centres unmarked) [drawing 37, Δ^9-Tetrahydrocannabivarin] here?
A: 0.009^[f] mg/mL

assay: physchem; conditions: water

Q: For `CCCCCc1cc(O)c(C/C=C(\C)CCC=C(C)C)c(O)c1` [drawing 35/drawing 36 1:1, 1-Benzylpyridinium cannabigerol salt (1:1)], which Solubility is on record?
A: 1000 µg/mL

same assay, conditions: water, Solubility

Q: With `CCCCCc1cc(O)c2c(c1)OC(C)(C)C1CCC(C)=CC21` (centres unmarked) [drawing 25/drawing 28 1:1, Meglumine Salt with THC (1:1)] as the compound, how does the Solubility read?
A: 9000 µg/mL

Q: With `CCCCCc1cc2c(c(O)c1C(=O)O)C1C=C(C)CCC1C(C)(C)O2` (centres unmarked) [drawing 32/drawing 34 1:2, Meglumine Salt with Tetrahydrocannabinolic Acid (2:1)] as the compound, how does the Solubility read?
A: 20000 µg/mL

same assay, conditions: water, Solubility, in water; synthesized salts (and cannabinol parent)

Q: For `C=C(C)C1CCC(C)=CC1c1c(O)cc(CCCCC)c(C(=O)O)c1O` (centres unmarked) [drawing 30/drawing 31 1:3, Choline Salt with Cannabidiolic Acid (3:1)], which Solubility is on record?
A: 24000 µg/mL

Q: With `CCCCCc1cc2c(c(O)c1C(=O)O)C1C=C(C)CCC1C(C)(C)O2` (centres unmarked) [drawing 32/drawing 33 1:2, Choline Salt with Tetrahydrocannabinolic Acid (2:1)] as the compound, how does the Solubility read?
A: 20000 µg/mL
